Test results published in PMC2112634 (The Journal of Cell Biology, 1983).
Read-outs that look alike come from different tables or passages of the source. One block for each molecule: values may come before it.

Assays:
[1] = molecular target: T1, CCK-binding site (Mr 85,000 protein) of rat pancreatic plasma membranes (Rattus norvegicus, UniProt P30551); test: Affinity labeling; conditions: micromolar concentrations of competitor; unpublished results
T1 sequence (P30551 1-444): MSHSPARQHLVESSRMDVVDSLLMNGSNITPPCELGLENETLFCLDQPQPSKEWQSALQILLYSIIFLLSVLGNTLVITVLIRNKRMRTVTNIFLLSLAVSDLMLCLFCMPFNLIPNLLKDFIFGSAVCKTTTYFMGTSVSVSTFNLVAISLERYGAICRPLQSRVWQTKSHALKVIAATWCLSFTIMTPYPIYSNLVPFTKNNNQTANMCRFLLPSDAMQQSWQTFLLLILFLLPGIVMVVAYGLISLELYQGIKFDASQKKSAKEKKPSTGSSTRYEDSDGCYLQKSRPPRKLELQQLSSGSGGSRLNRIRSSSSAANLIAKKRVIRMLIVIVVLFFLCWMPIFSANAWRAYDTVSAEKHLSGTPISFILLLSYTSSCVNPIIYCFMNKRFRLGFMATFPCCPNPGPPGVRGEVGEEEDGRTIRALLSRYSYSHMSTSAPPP

[2] = molecular target: T2, CCK-binding sites on rat pancreatic plasma membranes (Rattus norvegicus, UniProt P30551); test: Competitive inhibition of 125I-CCK-33 binding to pancreatic plasma membranes
T2 sequence (P30551 1-444): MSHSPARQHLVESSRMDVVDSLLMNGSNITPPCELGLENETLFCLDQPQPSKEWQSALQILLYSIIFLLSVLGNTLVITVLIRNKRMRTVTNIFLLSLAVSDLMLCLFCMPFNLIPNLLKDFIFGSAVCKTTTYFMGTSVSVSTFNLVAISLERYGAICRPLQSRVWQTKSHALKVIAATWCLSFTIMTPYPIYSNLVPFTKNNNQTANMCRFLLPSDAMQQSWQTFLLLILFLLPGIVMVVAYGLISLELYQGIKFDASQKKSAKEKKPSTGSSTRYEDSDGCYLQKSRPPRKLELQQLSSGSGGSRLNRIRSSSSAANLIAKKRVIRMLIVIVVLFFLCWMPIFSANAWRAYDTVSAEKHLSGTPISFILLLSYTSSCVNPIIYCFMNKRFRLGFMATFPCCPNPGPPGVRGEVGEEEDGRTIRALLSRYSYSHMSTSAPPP

[3] = tested on: CCK-binding sites on rat pancreatic acinar cells; assay type: cell-based
[4] = tested on: CCK-binding sites on rat pancreatic acinar cells; test: Light microscopic autoradiography of pancreatic acini; assay type: cell-based; conditions: ~0.1 nM 125I-CCK-33, 15 min at 37C; Fig. 2a; similar results at 2 min
[5] = tested on: rabbit anti-CCK IgG (antiserum No. L-48); test: Affinity labeling of anti-CCK antibodies; assay type: binding; conditions: 0.07 nM 125I-CCK-33, 24 h at 4C, 1 mM DSS; Fig. 1 lane a
[6] = 125I-labeled Bolton-Hunter reagent; cited from earlier work
[7] = tested on: CCK receptor in rat pancreatic acini; conditions: rat pancreatic acinar cell; cited from earlier work
[8] = tested on: CCK-binding sites of rat pancreatic plasma membranes; conditions: ultraviolet irradiation cross-linking; cited from earlier work
[9] = tested on: CCK receptors of mouse pancreatic acini; conditions: electron microscopic autoradiography; cited from earlier work
[10] = 0.1 nM 125I-CCK-33, 2 or 15 min, 37C, % of total grains
[11] = 2 min, 37C, 0.1 nM 125I-CCK-33, mean ± SEM, 17 micrographs, Table I
[12] = 15 min, 37C, 0.1 nM 125I-CCK-33, mean ± SEM, 18 micrographs, Table I

effect on labeling of membrane proteins by 125I-CCK-33 [1]: unaffected
Molecule: secretin: peptide tested at micromolar concentration as specificity control

peptide released from binding sites during cross-linking and subsequent washing [2]: < 5%
Molecule: 125I-CCK-33: CCK-33 acylated with 125I-labeled Bolton-Hunter reagent (KAPSGRVSMIKNLQSLDPSHRISDRDYMGWMDF; Cholecystokinin-33 125I-Bolton-Hunter labeled; UniProt P01356 70-102, looked up)
grains over cytoplasm (summary) [3, 10]: ~ 30% | grains over embedding medium (summary) [3, 10]: 5- 8% | grains over nucleus (summary) [3, 10]: 1-2% | grains within 1 HD of the lateral and basal plasmalemma [3, 10]: approximately 60% | Basal PM grain density [3, 11]: 2.57 0.08 grains/µm2 | Cytoplasm, % total grains [3, 11]: 34.0 ± 1.3 % total grains | Lateral PM grain density [3, 11]: 1.10 0.05 grains/µm2 | Lateral PM, % total grains [3, 11]: 12.1 ± 0.4 % total grains | distribution of grains at 4C ([3]; 2 min or 15 min at 4C, data not shown, compared with 37C): Qualitatively similar results | relative grain density over cytoplasm or nucleus compared to embedding medium ([3]; 15 min, 37C): no statistically significant increase | Apical PM grain density [3, 12]: 0.11 ± 0.02 grains/µm2 | Apical PM, % total grains [3, 12]: 0.1 % total grains | Basal PM grain density [3, 12]: 2.46 0.11 grains/µm2 | Basal PM, % total grains [3, 12]: 34.8 0.6 % total grains | Cytoplasm, % total grains [3, 12]: 30.0 ± 0.8 % total grains | Embedding medium, % total grains [3, 12]: 8.1 0.6 % total grains | Lateral PM grain density [3, 12]: 2.32 0.07 grains/µm2 | Lateral PM, % total grains [3, 12]: 25.5 ± 0.6 % total grains | specific binding sites on centroacinar or ductular cells ([3]; autoradiography, 125I-CCK-33): no apparent specific | relative grain density over cytoplasm and nucleus (summary) ([3]; either time point, 37C): never exceeded unity | distribution of autoradiographic grains (light microscopy) [4]: primarily delineated the basal and lateral boundaries of the acinar cells | labeling of heavy and light chains of anti-CCK IgG [5]: labeling of the heavy and light chains of anti-CCK IgG was obtained | secretagogue activity after Bolton-Hunter acylation [6]: retention of secretagogue activity

effect on labeling of membrane proteins by 125I-CCK-33 [1]: unaffected
Molecule: insulin: polypeptide hormone tested at micromolar concentration as specificity control

B1: cholecystokinin (peptide, UniProt P06307 21-115, looked up)
Cholecystokinin: QPVPPADPAGSGLQRAEEAPRRQLRVSQRTDGESRAHLGALLARYIQQARKAPSGRMSIVKNLQNLDPSHRISDRDYMGWMDFGRRSAEEYEYPS
modifications: Cholecystokinin
high affinity binding sites per cell [7]: approximately 650 binding sites per cell | low affinity binding sites per cell [7]: ~100,000 binding sites per cell | Mr of specifically labeled polypeptide [8]: 76,000 | localization of CCK receptors [9]: localized to the basolateral plasmalemma of mouse pancreatic acini
